Reference: US20230391868A1, “COMPOSITIONS FOR AND METHODS OF TREATING CANCER” (The George Washington University, priority 2022, published 2023)

Assays:
SM1 melanoma cells = test: Flow cytometry-based phagocytosis assay, BMDMs co-cultured with SM1 cells; type: cell-based, mouse; details: NextA treated vs untreated macrophages (FIG. 4)
Method: To evaluate phagocytosis by flow cytometry, SM1 melanoma cells were co-cultured with A3.1A7 cells or BMDMs derived from wild-type C57/Bl6 mice at a 2:1 ratio for 2 hr. or 4 hr. in serum-free media. Twenty-four (24) hours prior to co-culture, macrophages were polarized to their respective phenotypes as previously described in the presence or absence of NextA, and melanoma cells were untreated or treated with NextA. On the day of the co-culture, melanoma cells were stained with 1 μM of CellTrace™ CFSE Cell Proliferation Kit (ThermoFisher, C34554) and were washed extensively to remove excess dye. Phagocytosis assays were carried out in the presence of anti-mouse CD47 (clone miap301, 127502, Biolegend, San Diego, CA) and its respective isotype control (IgG, 400502, Biolegend), or anti human CD47 (clone CC2C6, 323102, Biolegend) or isotype control (MOPC-21, BE0083, Biolegend) at 25 μg/mL. Co-culture was set up in non-cell culture treated 96 U-well plates. […]
Flow cytometry data was acquired a BD FACS Celesta Cell Analyzer, and data analysis was performed with FlowJo software version 10.3. Phagocytosis was determined as the percentage of CFSE+F4/80+ or CFSE+ CD11b+ cells out of total F4/80+ or total CD11b+ cells. […]

[1] = test system: human THP1-derived macrophages; test: Pro-phagocytic signal gene expression in THP1-derived macrophages; type: cell-based; details: human THP1-derived macrophages
Method: (§1) Macrophages were polarized to M1-like phenotype using 50 ng/mL of interferon gamma (IFNγ, 575306, Biolegend) and 100 ng/mL of bacterial lipopolysaccharide (LPS, L2880, Sigma Aldrich, St. Louis, MO) for 24 hours. To polarize macrophages towards the M2-like phenotype, macrophages were stimulated with 20 ng/mL of IL-4 (214-14, PeproTech) and 20 ng/mL of IL-13 (575904, Biolegend). THP1 monocytes were treated with 5 ng/mL of phorbol 12-myristate 13-acetate (PMA) to induce differentiation into macrophages. Once converted to macrophages, media was replaced to remove PMA prior to treatment and/or polarization. Polarization towards M1 and M2 phenotypes was performed with respective recombinant human cytokines from PeproTech: 50 ng/mL of IFNγ (300-02), 20 ng/mL IL-4 (200-04), and 20 ng/mL IL-13 (200-13). 100 ng/mL LPS was also used to polarize toward the M1 phenotype. 3. In vivo Studies.
qRT-PCR: Total RNA was extracted from cells using the Trizol reagent according to manufacturer's instructions (ThermoFisher Scientific, 15596018). Samples were then processed immediately or stored at −80° C. RNA was quantified using a NanoDrop One Spectrophotometer (ThermoFisher Scientific). The 260/280 ratios were routinely over 1.8. Sample cDNA was produced using the iScript cDNA synthesis kit (Bio-Rad, 1708891). Target mRNA was quantified using MyIQ single-color real-time PCR detection system from Bio-Rad (Bio-Rad, Hercules, CA) and iQ SYBR green Supermix (Bio-Rad, 1708882). The following primers were synthesized by Invitrogen (Waltham, MA) with sequences designed by Origene (Rockville, MD): mouse R-actin (MP200232), mouse Nos2 (MP208933), mouse MRC1 (MP207800), human R-actin (HP204660), human IL-1β (HP200544), human MRC1 (HP206121), human NOS2 (HP200591), human CD209 (HP214086), mouse SIRPα (MP215450), mouse LRP1 (MP207604), human LRP1 (HP206040), mouse MFGE8 (MP208190), human MFGE8 (HP225757), mouse CD36 (MP201923), human CD36 (HP200058), and mouse CD47 (MP201932). […] Quantification is expressed in arbitrary units and target mRNA levels were normalized to R-actin expression.

WM164 melanoma cells = test: Flow cytometry-based phagocytosis assay, THP1-derived macrophages with WM164 cells; type: cell-based, human; details: co-culture with WM164 melanoma cells (FIG. 4J)
THP1-derived macrophages = test: M1/M2 marker gene expression in THP1-derived macrophages by qRT-PCR; type: cell-based, human
Method: as §1
qRT-PCR: Total RNA was extracted from cells using the Trizol reagent according to manufacturer's instructions (ThermoFisher Scientific, 15596018). Samples were then processed immediately or stored at −80° C. RNA was quantified using a NanoDrop One Spectrophotometer (ThermoFisher Scientific). The 260/280 ratios were routinely over 1.8. Sample cDNA was produced using the iScript cDNA synthesis kit (Bio-Rad, 1708891). Target mRNA was quantified using MyIQ single-color real-time PCR detection system from Bio-Rad (Bio-Rad, Hercules, CA) and iQ SYBR green Supermix (Bio-Rad, 1708882). The following primers were synthesized by Invitrogen (Waltham, MA) with sequences designed by Origene (Rockville, MD): mouse R-actin (MP200232), mouse Nos2 (MP208933), mouse MRC1 (MP207800), human R-actin (HP204660), human IL-1β (HP200544), human MRC1 (HP206121), human NOS2 (HP200591), human CD209 (HP214086), mouse SIRPα (MP215450), mouse LRP1 (MP207604), human LRP1 (HP206040), mouse MFGE8 (MP208190), human MFGE8 (HP225757), mouse CD36 (MP201923), human CD36 (HP200058), and mouse CD47 (MP201932). Primers for mouse ARG-1 (PPM31770C) and human SIRPα (QT01031051) were purchased from Qiagen (Hilden, Germany). Human CD47 primer sequences were obtained from Sudo T, et al and are 5′-[…]-3′ (sense) (SEQ ID NO:01) and 5′-[…]-3′ (antisense) (SEQ ID NO:02) (Sudo T, et al. (2017) Oncol. Lett. 14:801-809). Human CD86 primer sequences are 5′-[…]-3′ (sense) (SEQ ID NO:03) and 5′-[…]-3′ (antisense) (SEQ ID NO:04). Mouse CD80 sequences are 5′-[…]-3′ (sense) (SEQ ID NO:05) and 5′-[…]-3′ (antisense) (SEQ ID NO:06). Cycling conditions were set as per manufacturer's instructions. Single product amplification was confirmed by melting curve analysis. Quantification is expressed in arbitrary units and target mRNA levels were normalized to R-actin expression. […]

## CCCCN(Cc1ccc(C(=O)NO)cc1)C(=O)Nc1ccccc1 [NextA, Nexturastat A]
SM1 melanoma cells
  phagocytic capacity of macrophages: enhanced the phagocytic capacity
[1]
  expression of Lrp1, Cd36, and Mfge8: significant increase
WM164 melanoma cells
  phagocytosis by unpolarized THP-1 derived macrophages: significantly more phagocytic
THP1-derived macrophages; THP1-derived M1 macrophages, 5 μM NextA (FIG. 1H)
  M1-associated markers NOS2, CD86, and IL1B: either unaffected or significantly upregulated
THP1-derived macrophages; THP1-derived M2 macrophages, 5 μM NextA (FIG. 1I)
  expression of M2-associated markers CD206 and CD209 at the transcriptional level: significantly downregulated
